Test results reported in ChEMBL document CHEMBL1201862, “PubChem BioAssay data set” (2004).
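Following 48 hours of exposure in 96-well plates, responses at five concentrations were used to interpolate endpoints linearly. GI50: concentration for 50% inhibition of growth.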 Activity calls are given as the source filed them. No stated cut-off is given here; in the data, active = GI50 up to about 1.1 µM and inactive = higher. *1 amine or outer side, *2 acyl side, *3 side chain or, on linkers, in order; H or OH if unused. Where a SMILES comes first, the peptide text is derived from it. Bridges are numbered along the chain shown (N, C = ends). Roman numbers before positions name the chains, in order. [ ]: non-standard residue; d: D form. Actinocin(1to9) = Cc1c2oc3c(C)ccc(C(=O)[*:2])c3nc-2c(C(=O)[*:1])c(N)c1=O; NMeV = CN[CH](C(=O)O)C(C)C; Sar = CNCC(=O)O

Tests used:
Assay in all cases: NCI tumour cell line growth inhibition, 48 h
786-0 = system: 786-0
A498 = system: A498
A549 = system: A549
ACHN = system: ACHN
BT-549 = system: BT-549
CAKI-1 = system: CAKI-1
HCT-116 = system: HCT-116
HCT-15 = system: HCT-15
HL-60 = system: HL-60
HOP-62 = system: HOP-62
HOP-92 = system: HOP-92
Hs-578T = system: Hs-578T
M14 = system: M14
MCF7 = system: MCF7
MDA-MB-231 = system: MDA-MB-231
NCI-H226 = system: NCI-H226
NCI-H522 = system: NCI-H522
OVCAR-8 = system: OVCAR-8
SK-MEL-28 = system: SK-MEL-28
T47D = system: T47D

SMILES	GI50 (786-0)	GI50 (A498)	GI50 (A549)	GI50 (ACHN)	GI50 (BT-549)	GI50 (CAKI-1)	GI50 (HCT-116)	GI50 (HCT-15) [µM]	GI50 (HL-60)	GI50 (HOP-62)	GI50 (HOP-92)	GI50 (Hs-578T)	GI50 (M14)	GI50 (MCF7)	GI50 (MDA-MB-231)	GI50 (NCI-H226)	GI50 (NCI-H522)	GI50 (OVCAR-8)	GI50 (SK-MEL-28)	GI50 (T47D)
Cc1nc(C)c(N2CCN(C(=O)NC(CCC(=O)O)C(=O)O)CC2)c(O)n1 (stereo not given)	> 100 µM (inactive)	> 100 µM (inactive)	> 100 µM (inactive)	> 100 µM (inactive)	> 100 µM (inactive)	> 100 µM (inactive)	> 100 µM (inactive)	> 100	> 100 µM (inactive)	> 100 µM (inactive)	> 100 µM (inactive)	> 100 µM (inactive)	> 100 µM (inactive)	> 100 µM (inactive)	> 100 µM (inactive)	> 100 µM (inactive)	> 100 µM (inactive)	> 100 µM (inactive)	> 100 µM (inactive)	> 100 µM (inactive)
C/C(=N/NC(=S)N1CCN(C(=S)N/N=C(/C)c2ccccn2)CC1)c1ccccn1	6.87 µM (inactive)	8.81 µM (inactive)	9.12 µM (inactive)	2.52 µM (inactive)	15.9 µM (inactive)	6.56 µM (inactive)	6.89 µM (inactive)	2.15	0.352 µM (active)	10 µM (inactive)	> 46.2 µM (inactive)	> 38 µM (inactive)	4.47 µM (inactive)	5.24 µM (inactive)	45.2 µM (inactive)	6.89 µM (inactive)	7.64 µM (inactive)	4.13 µM (inactive)	14.3 µM (inactive)	3.52 µM (inactive)
N#CC1(O)CCCCCCCCCCC1	> 100 µM (inactive)	> 100 µM (inactive)	> 100 µM (inactive)	> 100 µM (inactive)	> 100 µM (inactive)	> 100 µM (inactive)	> 100 µM (inactive)	> 100	> 100 µM (inactive)	> 100 µM (inactive)	> 100 µM (inactive)	> 100 µM (inactive)	> 100 µM (inactive)	> 100 µM (inactive)	> 100 µM (inactive)	> 100 µM (inactive)	48.8 µM (inactive)	> 100 µM (inactive)	> 100 µM (inactive)	> 100 µM (inactive)
CC(=O)OCC1OC(n2c(C#N)cc(=O)[nH]c2=O)CC1OC(C)=O (stereo not given)	> 100 µM (inactive)	> 100 µM (inactive)	> 100 µM (inactive)	> 100 µM (inactive)	> 100 µM (inactive)	> 100 µM (inactive)	> 100 µM (inactive)	> 100	> 100 µM (inactive)	> 100 µM (inactive)	> 100 µM (inactive)	> 100 µM (inactive)	> 100 µM (inactive)	> 100 µM (inactive)	> 100 µM (inactive)	> 100 µM (inactive)	> 100 µM (inactive)	> 100 µM (inactive)	> 100 µM (inactive)	> 100 µM (inactive)
O=C(c1cc(Cl)cc(Cl)c1)N(C(=O)N1CCN(c2ccccc2)CC1)c1ccccc1	43.1 µM (inactive)	21.2 µM (inactive)	23.2 µM (inactive)	72.9 µM (inactive)	48.1 µM (inactive)	33.1 µM (inactive)	24.3 µM (inactive)	17	17.2 µM (inactive)	87.1 µM (inactive)	34.5 µM (inactive)	56.1 µM (inactive)	27.6 µM (inactive)	29.9 µM (inactive)	52.1 µM (inactive)	22.8 µM (inactive)	16.4 µM (inactive)	53.5 µM (inactive)	56.1 µM (inactive)	18.1 µM (inactive)
CCC(C)C1NC(=O)C(NC(=O)c2c3nc4c(C(=O)NC5C(=O)NC(C(C)C)C(=O)N6CCCC6C(=O)N(C)CC(=O)N(C)C(C(C)C)C(=O)OC5C)ccc(C)c4oc-3c(C)c(=O)c2N)C(C)OC(=O)C(C(C)C)N(C)C(=O)CN(C)C(=O)C2CCCN2C1=O (stereo not given) (I: TIP[Sar][NMeV] / II: TVP[Sar][NMeV]; ester I:1-I:C, II:1-II:C; linker I:N-II:N via Actinocin(1to9); configuration not given here)	0.00042 µM (active)	0.000197 µM (active)	0.000431 µM (active)	0.000647 µM (active)	0.00247 µM (active)	0.00378 µM (active)	< 0.0001 µM (active)	0.0807	0.000513 µM (active)	0.000594 µM (active)	0.00161 µM (active)	0.00546 µM (active)	0.00269 µM (active)	< 0.0001 µM (active)	0.000173 µM (active)	0.0101 µM (active)	< 0.0001 µM (active)	0.000443 µM (active)	0.000733 µM (active)	0.00183 µM (active)
CCC(C(=O)C(=O)C(CC)P1(=O)OC(C)(C)CN1C(C)(C)C)P1(=O)OC(C)(C)CN1C(C)(C)C (stereo not given)	> 100 µM (inactive)	> 100 µM (inactive)	> 100 µM (inactive)	> 100 µM (inactive)	> 100 µM (inactive)	> 100 µM (inactive)	> 100 µM (inactive)	> 100	> 100 µM (inactive)	> 100 µM (inactive)	45.9 µM (inactive)	> 100 µM (inactive)	> 100 µM (inactive)	68.5 µM (inactive)	> 100 µM (inactive)	> 100 µM (inactive)	> 100 µM (inactive)	> 100 µM (inactive)	> 100 µM (inactive)	> 100 µM (inactive)
O=C(O)c1cc2ccc3ccccc3c2oc1=O	> 100 µM (inactive)	54.2 µM (inactive)	> 100 µM (inactive)	> 100 µM (inactive)	> 100 µM (inactive)	> 10 µM (inactive)	> 100 µM (inactive)	> 100	> 100 µM (inactive)	> 100 µM (inactive)	> 100 µM (inactive)	> 100 µM (inactive)	> 100 µM (inactive)	> 100 µM (inactive)	> 100 µM (inactive)	> 100 µM (inactive)	> 100 µM (inactive)	> 100 µM (inactive)	> 100 µM (inactive)	> 100 µM (inactive)
COC(=O)c1c(O)ccc2c1c1c(n2C)C(=O)c2ccccc2C1=O	15.3 µM (inactive)	> 100 µM (inactive)	14.5 µM (inactive)	9.29 µM (inactive)	10.4 µM (inactive)	7.69 µM (inactive)	12.2 µM (inactive)	13.1	> 100 µM (inactive)	14.8 µM (inactive)	2.28 µM (inactive)	6.93 µM (inactive)	49.2 µM (inactive)	9.18 µM (inactive)	10 µM (inactive)	9.02 µM (inactive)	18.4 µM (inactive)	17.8 µM (inactive)	32.7 µM (inactive)	3.42 µM (inactive)
N=C(N)NCCN1CCCCCc2ccccc21	> 10 µM (inactive)	> 10 µM (inactive)	> 10 µM (inactive)	> 10 µM (inactive)	7.08 µM (inactive)	> 10 µM (inactive)	> 10 µM (inactive)	> 10	> 10 µM (inactive)	> 10 µM (inactive)	5.24 µM (inactive)	8.05 µM (inactive)	> 10 µM (inactive)	> 10 µM (inactive)	> 10 µM (inactive)	> 10 µM (inactive)	> 10 µM (inactive)	> 10 µM (inactive)	> 10 µM (inactive)	> 10 µM (inactive)
COc1ccc2nc3ccc(OC)cc3c(SCc3ccccc3)c2c1	76 µM (inactive)	> 100 µM (inactive)	> 82.4 µM (inactive)	97.9 µM (inactive)	> 100 µM (inactive)	> 100 µM (inactive)	> 74 µM (inactive)	> 95.5	> 100 µM (inactive)	> 100 µM (inactive)	> 100 µM (inactive)	> 100 µM (inactive)	> 33.1 µM (inactive)	> 55.3 µM (inactive)	> 100 µM (inactive)	> 100 µM (inactive)	> 84.9 µM (inactive)	> 84.1 µM (inactive)	> 85.7 µM (inactive)	> 100 µM (inactive)
[N-]=[N+]=Nc1ccc2c(c1)Sc1ccccc1N2CCCCN1CCN(Cc2ccc(C(=O)c3ccccc3)cc2)CC1	5.24 µM (inactive)	17.4 µM (inactive)	> 92.5 µM (inactive)	6.46 µM (inactive)	> 20.7 µM (inactive)	7.13 µM (inactive)	3.43 µM (inactive)	3.47	2.47 µM (inactive)	> 38.9 µM (inactive)	2.29 µM (inactive)	16.3 µM (inactive)	2 µM (inactive)	2.64 µM (inactive)	3.11 µM (inactive)	20.4 µM (inactive)	1.85 µM (inactive)	3.4 µM (inactive)	1.96 µM (inactive)	3.39 µM (inactive)
COC(=O)c1ccccc1C1CN=NC12Cc1ccc3c(c1C2=O)CCC3 (stereo not given)	43.4 µM (inactive)	55.2 µM (inactive)	> 100 µM (inactive)	50.4 µM (inactive)	> 100 µM (inactive)	> 100 µM (inactive)	39.3 µM (inactive)	> 100	19.6 µM (inactive)	> 100 µM (inactive)	23.1 µM (inactive)	74.3 µM (inactive)	> 100 µM (inactive)	34.9 µM (inactive)	75.5 µM (inactive)	55.1 µM (inactive)	6.55 µM (inactive)	94.4 µM (inactive)	> 100 µM (inactive)	19.2 µM (inactive)
NNC(=O)c1ccc[n+](CCc2ccccc2)c1	> 100 µM (inactive)	> 100 µM (inactive)	> 100 µM (inactive)	> 100 µM (inactive)	> 100 µM (inactive)	> 100 µM (inactive)	> 100 µM (inactive)	> 100	> 100 µM (inactive)	> 100 µM (inactive)	> 100 µM (inactive)	> 100 µM (inactive)	> 100 µM (inactive)	> 100 µM (inactive)	> 100 µM (inactive)	> 100 µM (inactive)	> 100 µM (inactive)	> 100 µM (inactive)	> 100 µM (inactive)	> 100 µM (inactive)
